Molecular target: T1, porcine pancreas lipase (Sus scrofa, UniProt P00591)
T1 construct: purchased ICN Biomedicals BV
T1 sequence (P00591 1-450): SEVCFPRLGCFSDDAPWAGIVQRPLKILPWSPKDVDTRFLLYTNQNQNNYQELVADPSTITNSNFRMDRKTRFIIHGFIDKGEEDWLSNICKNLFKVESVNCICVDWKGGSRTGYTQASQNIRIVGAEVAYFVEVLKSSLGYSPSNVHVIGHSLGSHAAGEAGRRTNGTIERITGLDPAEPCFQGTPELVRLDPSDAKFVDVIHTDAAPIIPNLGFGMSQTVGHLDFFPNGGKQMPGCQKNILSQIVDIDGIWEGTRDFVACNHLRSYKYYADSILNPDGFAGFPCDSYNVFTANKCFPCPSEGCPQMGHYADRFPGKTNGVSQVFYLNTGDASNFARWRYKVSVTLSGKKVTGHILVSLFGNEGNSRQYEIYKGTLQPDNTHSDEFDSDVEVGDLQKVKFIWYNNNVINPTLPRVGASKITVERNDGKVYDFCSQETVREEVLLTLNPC
Experiment: In vitro lipase inhibitory activity (hydrolysis of p-nitrophenyl caprylate to p-nitrophenol, absorption at 405 nm)
Type: biochemical
Settings: inhibition of lipase activity compared to control at the final concentration printed in the same row
Description: Lipase activity was determined by measuring the rate of hydrolysis of p-nitrophenyl caprylate to p-nitrophenol (yellow) and caprylate.
Phosphate buffer A (200 mM phosphate buffer with a pH 7) was prepared by mixing: 488 ml 200 mM Na2HPO4·H2O (17.5 gram/500 ml) with 296 ml 200 mM NaH2PO4·H2O (13.8 gram/500 ml) followed by adjustment of the pH. Substrate solution was prepared freshly by mixing: • a) 500 ml buffer B (200 mM phosphate buffer A pH 7 containing 0.1% (w/v) Triton x-100) and • b) 5.3 ml stock solution of the substrate (250 mM p-nitrophenyl caprylaat (pnp) in acetonitrile). […] The final concentration of pnp in the substrate solution is thus 2.66 mM pnp. Subsequently, the substrate solution was placed in an ultrasonic bath for exactly 3 minutes. […]
Samples were prepared by adding 40 mg of commercial extracts of Salvia material to 4 ml DMSO, incubating at room temperature for 15 minutes, followed by centrifugation to remove the insolubles. […] For each sample the capacity to inhibit lipase activity was determined.
25 µl of sample (25 µl DMSO for control) was added to 150µl substrate solution and incubated for 10 minutes at 37 °C. Subsequently 25 µl lipase solution was added and the p-nitrophenol formation was determined during a period of 10 minutes by measuring the absorption increase at 405 nm. […]

With CCCCCCCCCCC[C@@H](C[C@@H]1OC(=O)[C@H]1CCCCCC)OC(=O)[C@H](CC(C)C)NC=O [Orlistat] the “Inhibition (%)” value was 50%.
